Reference: the supplement of paper PMC9938120

Key:
Test in all cases: drug sensitivity score (DSS3, normalised partial AUC of % inhibition dose-response) (DSS (score)); higher = more sensitive (stronger inhibition of viability); extreme values may be limits of the assay
FMOC02_2 = patient-derived low-grade serous ovarian cancer cells; details: 72 h; library: FO5A; assay format: 2D, 384-well, CellTiter-Glo
Summary of the method: (§1)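 Patient-derived ovarian cancer cells (early passage, under 10) were dispensed onto 384-well flat clear-bottom plates pre-plated with compounds at five concentrations covering a 10,000-fold range. Plates were incubated 72 h at 37 °C, 5% CO2, and viability was read with CellTiter-Glo. Data were processed in Breeze. The drug sensitivity score (DSS3) is a partial area under the percent-inhibition dose-response curve, divided by the log of the upper asymptote; higher means more sensitive.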

FMOC02_3 = patient-derived low-grade serous ovarian cancer cells; details: 72 h; library: FO5A; assay format: 2D, 384-well, CellTiter-Glo
Summary of the method: as §1

FMOC03 = patient-derived mucinous ovarian cancer cells; details: 72 h; library: FO5A; assay format: 2D, 384-well, CellTiter-Glo
Summary of the method: as §1

FMOC06 = patient-derived mucinous ovarian cancer cells; details: 72 h; library: FO5A; assay format: 2D, 384-well, CellTiter-Glo
Summary of the method: as §1

FMOC09 = patient-derived high-grade serous ovarian cancer cells; details: 72 h; library: FO5A; assay format: 2D, 384-well, CellTiter-Glo
Summary of the method: as §1

FMOC14 = patient-derived high-grade serous ovarian cancer cells; details: 72 h; library: FO5A; assay format: 2D, 384-well, CellTiter-Glo
Summary of the method: as §1

FMOC22 = patient-derived mucinous ovarian cancer cells; details: 72 h; library: FO5A; assay format: 2D, 384-well, CellTiter-Glo
Summary of the method: as §1

FMOC24 = patient-derived high-grade serous ovarian cancer cells; details: 72 h; library: FO5A; assay format: 2D, 384-well, CellTiter-Glo
Summary of the method: as §1

FMOC25_1 = patient-derived low-grade serous ovarian cancer cells; details: 72 h; library: FO4B; assay format: 2D, 384-well, CellTiter-Glo
Summary of the method: as §1

FMOC25_2 = patient-derived low-grade serous ovarian cancer cells; details: 72 h; library: FO5A; assay format: 2D, 384-well, CellTiter-Glo
Summary of the method: as §1

| SMILES | drug sensitivity score (FMOC02_2) | drug sensitivity score (FMOC02_3) | drug sensitivity score (FMOC03) | drug sensitivity score (FMOC06) | drug sensitivity score (FMOC09) | drug sensitivity score (FMOC14) | drug sensitivity score (FMOC22) | drug sensitivity score (FMOC24) | drug sensitivity score (FMOC25_1) | drug sensitivity score (FMOC25_2) |
| --- | --- | --- | --- | --- | --- | --- | --- | --- | --- | --- |
| CC[C@@H]1C(=O)N(C)c2cnc(Nc3ccc(C(=O)NC4CCN(C)CC4)cc3OC)nc2N1C1CCCC1 [BI 2536] | 6.7 | 9.3 | 5.2 | 2.1 | 9.1 | 0.4 | 5.1 | 2.25 | 5.8 | 7.3 |
| CC(=O)[C@]1(O)Cc2c(O)c3c(c(O)c2[C@@H](O[C@H]2C[C@H](N)[C@H](O)[C@H](C)O2)C1)C(=O)c1ccccc1C3=O [Idarubicin] | 7.8 | 9.1 | 4.8 | 5.8 | 6.3 | 6.1 | 7 | 9.4 | 9.2 | 9.1 |
| Cc1cc(OCc2nnc(SC3CCCC3)n2-c2cccnc2)ccc1-c1ccc(S(C)(=O)=O)cc1 [NMS-873] | 8.3 | 10 | 9 | 8 | 5.3 | 9.2 | 8.8 | 9.15 | 8.9 | 9.6 |
| Cc1cc2c(C(=O)NC[C@H](C)c3ccccc3)c(O)c(O)cc2c(O)c1-c1c(C)cc2c(C(=O)NC[C@H](C)c3ccccc3)c(O)c(O)cc2c1O [Sabutoclax] | 5.2 | 9.1 | 9.6 | 5.6 | 9.3 | 12.6 | 10.8 | 6.6 | 6.2 | 5.3 |
| O=C(NOCCO)c1ccc2cncn2c1Nc1ccc(I)cc1F [GDC-0623] | 7.3 | 5.3 | 1.3 | 6.1 | 4 | 0.1 | 7.2 | 1.35 | 9.6 | 11.2 |
| CO[C@@H](C(=O)N1Cc2[nH]nc(NC(=O)c3ccc(N4CCN(C)CC4)cc3)c2C1)c1ccccc1 [Danusertib] | 5.7 | 10.1 | 4.7 | 4.7 | 8.7 | 1.4 | 0 | 4.3 | 3.1 | 8 |
| N.N.[Cl][Pt][Cl] [Cisplatin] | 9.2 | 9.1 | 4 | 6 | 16.6 | 3.7 | 6.3 | 18.6 | 7.3 | 6 |
| COc1ccc(-c2nc(N3CCOCC3)c3sc(CN(C)c4ncc(C(=O)NO)cn4)cc3n2)cn1 [CUDC-907] | 34.3 | 33.2 | 32.8 | 31.2 | 18.4 | 31.4 | 31.1 | 33.7 | 29.2 | 29.1 |
| C[C@@]1(C(=O)Nc2ccc(F)nc2)CCCN1c1nc(Nc2cc(C3CC3)n[nH]2)c2cccn2n1 | 14.3 | 18.9 | 7 | 14.7 | 14.7 | 2.2 | 9.5 | 2.75 | 9.2 | 14.6 |
| CO[C@H](C(=O)[C@@H](O)[C@@H](C)O)[C@@H]1Cc2cc3cc(O[C@H]4C[C@@H](O[C@@H]5C[C@@H](O)[C@H](O)[C@@H](C)O5)[C@H](O)[C@@H](C)O4)c(C)c(O)c3c(O)c2C(=O)[C@H]1O[C@H]1C[C@@H](O[C@@H]2C[C@@H](O)[C@@H](O[C@@H]3C[C@](C)(O)[C@H](O)[C@@H](C)O3)[C@@H](C)O2)[C@H](O)[C@@H](C)O1 [Plicamycin] | 9 | 16.7 | 4.6 | 6.2 | 2.6 | 10.1 | 5.1 | 9 | 7 | 29.1 |
| Cc1cc(Nc2cc(N3CCN(C)CC3)nc(/C=C/c3ccccc3)n2)n[nH]1 [ENMD-2076] | 11.5 | 13.7 | 6.2 | 6.7 | 8.6 | 5.2 | 4.1 | 4.95 | 6.1 | 10.5 |
| COc1ncc(-c2ccc3nccc(-c4ccnnc4)c3c2)cc1NS(=O)(=O)c1ccc(F)cc1F [Omipalisib] | 24.2 | 23.9 | 18.4 | 20.6 | 19.1 | 15.2 | 13.9 | 8.5 | 24.2 | 22.1 |
| COc1cc(C(=O)O)ccc1NC(=O)[C@@H]1N[C@@H](CC(C)(C)C)[C@](C#N)(c2ccc(Cl)cc2F)[C@H]1c1cccc(Cl)c1F [Idasanutlin] | 18.5 | 22.7 | 2.6 | 5.3 | 2 | 2.5 | 3.6 | 1.9 | 10.5 | 16.6 |
| CC(C)(C)C[C@@H]1N[C@@H](C(=O)N[C@H]2CC[C@H](O)CC2)[C@H](c2cccc(Cl)c2F)[C@]12C(=O)Nc1cc(Cl)ccc12 | 10.3 | 17.9 | 3.1 | 3.3 | 1.6 | 1.6 | 3.5 | 3.4 | 9.9 | 8.4 |
| COc1ccc(-c2ccc3c(N4CCOC[C@@H]4C)nc(N4CCOC[C@@H]4C)nc3n2)cc1CO [AZD8055] | 28.6 | 29.9 | 20.7 | 20.3 | 14.5 | 16.2 | 17.4 | 13.3 | 30.9 | 28.8 |
| CCn1cc(-c2ccnc3[nH]c(-c4cccc(CN(C)C)c4)cc23)c(-c2ccc(NC(=O)N(C)C)cc2)n1 | 0 | 2.6 | 0 | 0 | 0 | 0 | 0.1 | 0.55 | 0 | 2.2 |
| CC(C)C[C@H](NC(=O)[C@H](Cc1ccccc1)NC(=O)c1cnccn1)B(O)O [Bortezomib] | 28.8 | 24.9 | 28.2 | 26.2 | 20.4 | 28.5 | 28.4 | 30.8 | 27.2 | 30.1 |

| SMILES | drug sensitivity score (FMOC02_2) | drug sensitivity score (FMOC02_3) | drug sensitivity score (FMOC03) | drug sensitivity score (FMOC06) | drug sensitivity score (FMOC09) | drug sensitivity score (FMOC14) | drug sensitivity score (FMOC22) | drug sensitivity score (FMOC24) | drug sensitivity score (FMOC25_1) | drug sensitivity score (FMOC25_2) |
| --- | --- | --- | --- | --- | --- | --- | --- | --- | --- | --- |
| CN(C)Cc1c(C(=O)NCCOc2ccc(C(=O)NO)cc2)oc2ccccc12 [Abexinostat] | 16.6 | 14 | 12.7 | 11.7 | 5.9 | 13.5 | 8.5 | 15.3 | 13.3 | 14.2 |
| COc1cc(Br)c(Nc2nc(-c3c(C)nc4ncccn34)cs2)c(Br)c1 [PTC-209] | 5.5 | 4.6 | 4.6 | 3.5 | 6 | 2.7 | 4.5 | 1.35 | 6.3 | 8.4 |
| COc1cc2ncnc(Nc3ccc(F)c(Cl)c3)c2cc1OCCCN1CCOCC1 [Gefitinib] | 17.3 | 15.1 | 16.2 | 5.4 | 10.9 | 6.6 | 1.5 | 5.8 | 9.8 | 16.5 |
| C[C@@H](Oc1cc(-n2cnc3ccc(CN4CCN(C)CC4)cc32)sc1C(N)=O)c1ccccc1C(F)(F)F | 8.2 | 9.1 | 7.3 | 5.3 | 12.6 | 3.9 | 11.5 | 6.1 | 7.4 | 11.9 |
| C=CC(=O)Nc1cc2c(Nc3ccc(F)c(Cl)c3)ncnc2cc1OCCCN1CCOCC1 [Canertinib] | 21.8 | 18.7 | 20.6 | 9 | 20.8 | 9.5 | 8 | 5.3 | 10 | 14.6 |
| C#Cc1cccc(Nc2ncnc3cc4c(cc23)OCCOCCOCCO4)c1 [Icotinib] | 11.2 | 10.7 | 9.7 | 3.4 | 8 | 2.1 | 1.8 | 1 | 9 | 7.1 |
| CN(C)C/C=C/C(=O)Nc1cc2c(Nc3ccc(F)c(Cl)c3)ncnc2cc1O[C@H]1CCOC1 [Afatinib] | 17.5 | 18.2 | 17 | 4.3 | 14.4 | 7.7 | 0.3 | 2.75 | 10.4 | 16.9 |
| NC(=O)Nc1cc(-c2cccc(F)c2)sc1C(=O)N[C@H]1CCCNC1 [AZD7762] | 3.5 | 6.1 | 1.5 | 3.6 | 6.3 | 6.2 | 3.3 | 9.15 | 3.3 | 4.5 |
| COc1c(OCCCN2CCOCC2)ccc2c1N=C(NC(=O)c1cnc(N)nc1)N1CCN=C21 [Copanlisib] | 17.4 | 19.6 | 8.5 | 12.8 | 10.5 | 6.6 | 5.2 | 3.1 | 11.7 | 16.8 |
| C/C=C1\NC(=O)[C@H]2CSSCC/C=C/[C@H](CC(=O)N[C@H](C(C)C)C(=O)N2)OC(=O)[C@H](C(C)C)NC1=O [Romidepsin] | 26.3 | 32.6 | 28.3 | 27.6 | 17.6 | 28.7 | 26.3 | 32.9 | 30.1 | 28.9 |
| NC(=O)N1CCC(CC(=O)N2CCC([C@H]3c4ncc(Br)cc4CCc4cc(Cl)cc(Br)c43)CC2)CC1 [Lonafarnib] | 6.6 | 0 | 9.8 | 12.1 | 7 | 10.3 | 15.1 | 7.5 | 2.7 | 9.8 |
| CC(C)Oc1ccc(C(=O)N[C@H](CNC(=O)CN(C)C)Cc2ccc(-c3cn4cccc([C@H](C)O)c4n3)cc2)cc1Cl | 3.8 | 11.9 | 5.5 | 2.7 | 7.3 | 3.5 | 5.7 | 4.8 | 3.3 | 8.8 |
| O=C(CCCCCCC(=O)Nc1ccccc1)NO [Vorinostat] | 9.8 | 7.7 | 5.5 | 7.4 | 3.1 | 6.8 | 4.6 | 10.1 | 5.5 | 8.5 |
| Cc1nc(Nc2n[nH]c3c2CN(C(=O)N[C@H](CN(C)C)c2ccccc2)C3(C)C)c2sccc2n1 | 12.8 | 20.9 | 10.6 | 13.7 | 10.2 | 6.5 | 10.5 | 8.1 | 16.7 | 26.6 |
| Nc1ccn([C@@H]2O[C@H](CO)[C@@H](O)C2(F)F)c(=O)n1 [Gemcitabine] | 16.3 | 17.3 | 2.9 | 5.4 | 10.5 | 0 | 12.7 | 6 | 7.6 | 14.6 |
| CC(=O)Nc1cccc(-n2c(=O)n(C3CC3)c(=O)c3c(Nc4ccc(I)cc4F)n(C)c(=O)c(C)c32)c1 [Trametinib] | 15.1 | 14 | 16.6 | 15.9 | 9.9 | 0.9 | 11.6 | 0 | 12.4 | 12 |
| CC(C)(C)c1cnc(CSc2cnc(NC(=O)C3CCNCC3)s2)o1 [SNS-032] | 19.4 | 25.5 | 17.4 | 23.2 | 11.6 | 17.9 | 12 | 17.9 | 20.8 | 25.4 |
